Laboratory results reported in ChEMBL document CHEMBL3885861, “Open TG-GATES”.

Organism: Rattus norvegicus
Assay: Open TG-GATES - Regimen: Single
Type: toxicity, organism-based, Sprague-Dawley
Set-up: regimen Single, gender Male, age 6 weeks
Conditions: in vivo, po, 30 mg/kg, route gavage, dose level Middle; for APTT / Bas / Eos / Fbg / Hb / Ht / Lym / MCH / MCHC / MCV / Mono / Neu / PT / Plat / RBC / Ret / WBC: tissue Blood; for KIDNEY_L / KIDNEY_R / KIDNEY_TOTAL: tissue Kidney; for LIVER: tissue Liver; for A/G / ALP / ALT / AST / BUN / CRE / Ca / Cl / DBIL / GLC / IP / K / LDH / Na / PL / RALB / TBIL / TC / TG / TP / gamma-GTP: tissue Plasma

CN(C)CCN(Cc1cccs1)c1ccccn1
TERMINAL_BW (3 h): 182 g
APTT (3 h): 21.9 s
Bas (3 h): 0%
Eos (3 h): 0.6%
Fbg (3 h): 308.2 mg/dL
Hb (3 h): 13 g/dL
Ht (3 h): 39.6%
Lym (3 h): 80.2%
MCH (3 h): 21.6 pg
MCHC (3 h): 32.8%
MCV (3 h): 65.9 fL
Mono (3 h): 2.2%
Neu (3 h): 15.8%
PT (3 h): 16.1 s
Plat (3 h): 115.9 x10_4/uL
RBC (3 h): 603 x10_4/ul
Ret (3 h): 7.3%
WBC (3 h): 81.5 x10_2/uL
KIDNEY_L (3 h): 0.8 g
KIDNEY_R (3 h): 0.9 g
KIDNEY_TOTAL (3 h): 1.7 g
LIVER (3 h): 8.3 g
A/G (3 h): 1.3
ALP (3 h): 1624.8 IU/L
ALT (3 h): 41.4 IU/L
AST (3 h): 73.6 IU/L
BUN (3 h): 13 mg/dL
CRE (3 h): 0.2 mg/dL
Ca (3 h): 10.5 mg/dL
Cl (3 h): 107.6 meq/L
DBIL (3 h): 0 mg/dL
GLC (3 h): 179 mg/dL
IP (3 h): 8.4 mg/dL
K (3 h): 4.4 meq/L
LDH (3 h): 201.8 IU/L
Na (3 h): 142.8 meq/L
PL (3 h): 140.4 mg/dL
RALB (3 h): 3 g/dL
TBIL (3 h): 0.016 mg/dL
TC (3 h): 75.4 mg/dL
TG (3 h): 53.4 mg/dL
TP (3 h): 5.4 g/dL
gamma-GTP (3 h): 1 IU/L
TERMINAL_BW (6 h): 186.2 g
APTT (6 h): 21.5 s
Bas (6 h): 0%
Eos (6 h): 0.6%
Fbg (6 h): 292.6 mg/dL
Hb (6 h): 12.6 g/dL
Ht (6 h): 38.7%
Lym (6 h): 74.6%
MCH (6 h): 21 pg
MCHC (6 h): 32.7%
MCV (6 h): 64 fL
Mono (6 h): 2%
Neu (6 h): 22%
PT (6 h): 16.9 s
Plat (6 h): 117.9 x10_4/uL
RBC (6 h): 604 x10_4/ul
Ret (6 h): 7.6%
WBC (6 h): 62.8 x10_2/uL
KIDNEY_L (6 h): 0.8 g
KIDNEY_R (6 h): 0.9 g
KIDNEY_TOTAL (6 h): 1.7 g
LIVER (6 h): 8 g
A/G (6 h): 1.2
ALP (6 h): 1536.2 IU/L
ALT (6 h): 34.2 IU/L
AST (6 h): 71.2 IU/L
BUN (6 h): 12.8 mg/dL
CRE (6 h): 0.1 mg/dL
Ca (6 h): 10.5 mg/dL
Cl (6 h): 106.2 meq/L
DBIL (6 h): 0 mg/dL
GLC (6 h): 173 mg/dL
IP (6 h): 9.2 mg/dL
K (6 h): 4.5 meq/L
LDH (6 h): 178 IU/L
Na (6 h): 141.6 meq/L
PL (6 h): 142.4 mg/dL
RALB (6 h): 2.8 g/dL
TBIL (6 h): 0.024 mg/dL
TC (6 h): 82.6 mg/dL
TG (6 h): 53 mg/dL
TP (6 h): 5.3 g/dL
gamma-GTP (6 h): 1 IU/L
TERMINAL_BW (9 h): 183.7 g
APTT (9 h): 20.6 s
Bas (9 h): 0%
Eos (9 h): 0.6%
Fbg (9 h): 290.8 mg/dL
Hb (9 h): 12.9 g/dL
Ht (9 h): 38.4%
Lym (9 h): 74%
MCH (9 h): 21.1 pg
MCHC (9 h): 33.5%
MCV (9 h): 63.1 fL
Mono (9 h): 2.2%
Neu (9 h): 22.2%
PT (9 h): 15.5 s
Plat (9 h): 124.7 x10_4/uL
RBC (9 h): 608.8 x10_4/ul
Ret (9 h): 7.7%
WBC (9 h): 66.5 x10_2/uL
KIDNEY_L (9 h): 0.8 g
KIDNEY_R (9 h): 0.8 g
KIDNEY_TOTAL (9 h): 1.7 g
LIVER (9 h): 7.5 g
A/G (9 h): 1.2
ALP (9 h): 1582.8 IU/L
ALT (9 h): 35.8 IU/L
AST (9 h): 69.8 IU/L
BUN (9 h): 11.2 mg/dL
CRE (9 h): 0.1 mg/dL
Ca (9 h): 10.3 mg/dL
Cl (9 h): 106.8 meq/L
DBIL (9 h): 0.002 mg/dL
GLC (9 h): 166.6 mg/dL
IP (9 h): 9.9 mg/dL
K (9 h): 4.5 meq/L
LDH (9 h): 205.6 IU/L
Na (9 h): 141.8 meq/L
PL (9 h): 131 mg/dL
RALB (9 h): 3 g/dL
TBIL (9 h): 0.022 mg/dL
TC (9 h): 77.4 mg/dL
TG (9 h): 42.2 mg/dL
TP (9 h): 5.5 g/dL
gamma-GTP (9 h): 1 IU/L
TERMINAL_BW (24 h): 198 g
APTT (24 h): 20 s
Bas (24 h): 0%
Eos (24 h): 0.8%
Fbg (24 h): 308 mg/dL
Hb (24 h): 12.9 g/dL
Ht (24 h): 38.8%
Lym (24 h): 84.4%
MCH (24 h): 20.6 pg
MCHC (24 h): 33.2%
MCV (24 h): 62.1 fL
Mono (24 h): 1.6%
Neu (24 h): 12.4%
PT (24 h): 16.8 s
Plat (24 h): 124 x10_4/uL
RBC (24 h): 625.6 x10_4/ul
Ret (24 h): 6.8%
WBC (24 h): 67.2 x10_2/uL
KIDNEY_L (24 h): 0.9 g
KIDNEY_R (24 h): 0.9 g
KIDNEY_TOTAL (24 h): 1.8 g
LIVER (24 h): 9.3 g
A/G (24 h): 1.2
ALP (24 h): 1883 IU/L
ALT (24 h): 46.4 IU/L
AST (24 h): 74.8 IU/L
BUN (24 h): 15.4 mg/dL
CRE (24 h): 0.2 mg/dL
Ca (24 h): 10.9 mg/dL
Cl (24 h): 106 meq/L
DBIL (24 h): 0.004 mg/dL
GLC (24 h): 179.8 mg/dL
IP (24 h): 7.3 mg/dL
K (24 h): 4.4 meq/L
LDH (24 h): 254.8 IU/L
Na (24 h): 142.4 meq/L
PL (24 h): 143.2 mg/dL
RALB (24 h): 3 g/dL
TBIL (24 h): 0.008 mg/dL
TC (24 h): 73.4 mg/dL
TG (24 h): 124.6 mg/dL
TP (24 h): 5.5 g/dL
gamma-GTP (24 h): 1.2 IU/L
